From the supplement of paper PMC11061612

Assays:
Experiment in all cases: combination Emax (second highest fraction inhibited in the dose matrix, 72 h); higher = more inhibition; extreme values may be limits of the assay
[1] = tested on: HSC-3 (Oral Cavity Carcinoma)
Summary of the method: (§1)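 After 24 hours at 37°C and 5% CO2 in 1536-well plates, cells in DMEM/F12 or RPMI plus 10% FBS received two-drug dose matrices for 72 hours. Viability came from CellTiter-Glo 2.0 luminescence and was scaled as inhibition, anchored at 0 by vehicle wells and at 1 by blank wells. Combination Emax is taken as the second-highest inhibition in the matrix, and Bliss excess as the observed combination effect less EA + EB − EA·EB, with EA and EB the single-agent effects.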

[2] = tested on: AN3-CA (Endometrial Carcinoma)
Summary of the method: as §1

[3] = tested on: RMG-I (Ovarian Carcinoma)
Summary of the method: as §1

[4] = tested on: KYSE-70 (Esophageal Squamous Cell Carcinoma)
Summary of the method: as §1

CHL-1 (Melanoma) = tested on: CHL-1 (Melanoma)
Summary of the method: as §1

[5] = tested on: OV-90 (Ovarian Carcinoma)
Summary of the method: as §1

786-0 (Kidney Carcinoma) = tested on: 786-0 (Kidney Carcinoma)
Summary of the method: as §1

[6] = tested on: Becker (Low Grade Glioma)
Summary of the method: as §1

[7] = tested on: EB-3 (Burkitt's Lymphoma)
Summary of the method: as §1

[8] = tested on: Calu-6 (Non-Small Cell Lung Carcinoma)
Summary of the method: as §1

[9] = tested on: RERF-LC-KJ (Lung Adenocarcinoma)
Summary of the method: as §1

[10] = tested on: NCI-H1155 (Non-Small Cell Lung Carcinoma)
Summary of the method: as §1

[11] = tested on: LOUCY (T-Lymphoblastic Leukemia)
Summary of the method: as §1

[12] = tested on: AsPC-1 (Pancreatic Carcinoma)
Summary of the method: as §1

[13] = tested on: BALL-1 (B-Lymphoblastic Leukemia)
Summary of the method: as §1

RT4 (Bladder Carcinoma) = tested on: RT4 (Bladder Carcinoma)
Summary of the method: as §1

[14] = tested on: Caov-3 (Ovarian Carcinoma)
Summary of the method: as §1

[15] = tested on: SJRH30 (Rhabdomyosarcoma)
Summary of the method: as §1

[16] = tested on: NCI-H1563 (Lung Adenocarcinoma)
Summary of the method: as §1

[17] = tested on: NCI-H1755 (Lung Adenocarcinoma)
Summary of the method: as §1

| Structure (SMILES) | combination Emax [1] | combination Emax [2] | combination Emax [3] | combination Emax [4] | combination Emax (CHL-1 (Melanoma)) | combination Emax [5] | combination Emax (786-0 (Kidney Carcinoma)) | combination Emax [6] | combination Emax [7] | combination Emax [8] | combination Emax [9] | combination Emax [10] | combination Emax [11] | combination Emax [12] | combination Emax [13] | combination Emax (RT4 (Bladder Carcinoma)) | combination Emax [14] | combination Emax [15] | combination Emax [16] | combination Emax [17] |
| --- | --- | --- | --- | --- | --- | --- | --- | --- | --- | --- | --- | --- | --- | --- | --- | --- | --- | --- | --- | --- |
| Cc1cc2ncnn2cc1Nc1ncc2c(n1)n(C1CCOCC1)c(=O)n2C [AZD7648] + CCN(CCO)CCCOc1ccc2c(Nc3cc(CC(=O)Nc4cccc(F)c4)[nH]n3)ncnc2c1 [AZD2811] (first compound max 10 µM, 7x7, partner max 1 µM) | 0.455 | 0.354 | 0.466 | 0.238 | 0.308 | 0.323 | 0.215 | 0.214 | 0.554 | 0.317 | 0.455 | 0.475 | 0.948 | 0.267 | 0.53 | 0.491 | 0.885 | 0.24 | 0.555 | 0.599 |
| C=CCn1c(=O)c2cnc(Nc3ccc(N4CCN(C)CC4)cc3)nc2n1-c1cccc(C(C)(C)O)n1 [AZD1775] + C[C@@H]1COCCN1C2=NC(=NC(=C2)C3(CC3)[S@](=N)(=O)C)C4=C5C=CNC5=NC=C4 [AZD6738] (first compound max 1 µM, partner max 10 µM) | 0.63 | 0.714 | 0.686 | 0.656 | 0.84 | 0.526 | 0.888 | 0.678 | 0.855 | 0.808 | 0.413 | 0.864 | 1 | 0.475 | 0.988 | 0.623 | 0.762 | 0.962 | 0.446 | 0.899 |
| Cc1c2c(nn1C)CSCc1cc(n(C)n1)CSc1cc(c3ccccc3c1)OCCCc1c(C(=O)O)n(C)c3c-2c(Cl)ccc13 [AZD5991] + CCN(CCO)CCCOc1ccc2c(Nc3cc(CC(=O)Nc4cccc(F)c4)[nH]n3)ncnc2c1 [AZD2811] (first compound max 1 µM, 7x7, partner max 1 µM) | 0.91 | 0.584 | 0.303 | 0.315 | 0.933 | 0.262 | 0.35 | 0.147 | 0.35 | 0.361 | 0.584 | 0.897 | 0.983 | 0.243 | 0.875 | 0.913 | 0.896 | 0.663 | 0.517 | 0.619 |
| Cc1c2c(nn1C)CSCc1cc(n(C)n1)CSc1cc(c3ccccc3c1)OCCCc1c(C(=O)O)n(C)c3c-2c(Cl)ccc13 [AZD5991] + Cc1cc2ncnn2cc1Nc1ncc2c(n1)n(C1CCOCC1)c(=O)n2C [AZD7648] (first compound max 1 µM, 7x7, partner max 10 µM) | 0.52 | 0.654 | 0.344 | 0.159 | 0.346 | 0.257 | 0.251 | 0.177 | 0.456 | 0.29 | 0.48 | 0.257 | 0.82 | 0.246 | 0.556 | 0.358 | 0.388 | 0.478 | 0.701 | 0.418 |
| Cc1cc2ncnn2cc1Nc1ncc2c(n1)n(C1CCOCC1)c(=O)n2C [AZD7648] + CN(C)CCCOc1ccc(-c2ccc3ncc4c(c3c2)n(C2CCOCC2)c(=O)n4C)cn1 [AZD0156] (first compound max 10 µM, 7x7, partner max 1 µM) | 0.174 | 0.321 | 0.431 | 0.211 | 0.253 | 0.216 | 0.18 | 0.184 | 0.585 | 0.381 | 0.314 | 0.319 | 0.604 | 0.274 | 0.295 | 0.42 | 0.366 | 0.165 | 0.49 | 0.362 |
| CCN(CCO)CCCOc1ccc2c(Nc3cc(CC(=O)Nc4cccc(F)c4)[nH]n3)ncnc2c1 [AZD2811] + C[C@@H]1COCCN1C2=NC(=NC(=C2)C3(CC3)[S@](=N)(=O)C)C4=C5C=CNC5=NC=C4 [AZD6738] (first compound max 1 µM, 7x7, partner max 10 µM) | 0.454 | 0.48 | 0.497 | 0.313 | 0.805 | 0.429 | 0.714 | 0.586 | 0.644 | 0.767 | 0.319 | 0.787 | 1 | 0.42 | 0.984 | 0.429 | 0.841 | 0.839 | 0.206 | 0.788 |
| C[C@@H]1COCCN1c1cc(C2([S@](C)(=N)=O)CC2)nc(-c2ccnc3[nH]ccc23)n1 [AZD6738] + O=C(c1cc(Cc2n[nH]c(=O)c3ccccc23)ccc1F)N1CCN(C(=O)C2CC2)CC1 [Olaparib] (first compound max 10 µM, 7x7, partner max 10 µM) | 0.404 | 0.577 | 0.414 | 0.45 | 0.577 | 0.537 | 0.679 | 0.601 | 0.617 | 0.684 | 0.326 | 0.825 | 0.974 | 0.308 | 0.983 | 0.443 | 0.699 | 0.619 | 0.223 | 0.793 |
| Cc1c2c(nn1C)CSCc1cc(n(C)n1)CSc1cc(c3ccccc3c1)OCCCc1c(C(=O)O)n(C)c3c-2c(Cl)ccc13 [AZD5991] + C[C@@H](Nc1cc(F)cc(F)c1)c1cc(C(=O)N(C)C)cc2c(=O)cc(N3CCOCC3)oc12 [AZD8186] (first compound max 1 µM, 7x7, partner max 3 µM) | 0.536 | 0.899 | 0.426 | 0.173 | 0.485 | 0.214 | 0.374 | 0.462 | 0.262 | 0.222 | 0.527 | 0.33 | 0.47 | 0.235 | 0.374 | 0.286 | 0.374 | 0.588 | 0.824 | 0.418 |
| CC1(C)CCC(CN2CCN(c3ccc(C(=O)NS(=O)(=O)c4ccc(NCC5CCOCC5)c([N+](=O)[O-])c4)c(Oc4cnc5[nH]ccc5c4)c3)CC2)=C(c2ccc(Cl)cc2)C1 [Venetoclax] + C[C@@H](Nc1cc(F)cc(F)c1)c1cc(C(=O)N(C)C)cc2c(=O)cc(N3CCOCC3)oc12 [AZD8186] (first compound max 1 µM, 7x7, partner max 3 µM) | 0.0933 | 0.457 | 0.277 | 0.0812 | 0.147 | 0.164 | 0.267 | 0.418 | 0.198 | 0.125 | 0.195 | 0.422 | 1 | 0.104 | 1 | 0.174 | 0.797 | 0.0499 | 0.431 | 0.588 |
| CN(CCO)CC[C@H](CSc1ccccc1)Nc1ccc(S(=O)(=O)NC(=O)c2ccc(N3CCC([C@@H](O)c4ccccc4-c4ccc(Cl)cc4)CC3)cc2)cc1S(=O)(=O)C(F)(F)F [AZD4320] + C=CCn1c(=O)c2cnc(Nc3ccc(N4CCN(C)CC4)cc3)nc2n1-c1cccc(C(C)(C)O)n1 [AZD1775] (first compound max 1 µM, partner max 1 µM) | 0.707 | 0.468 | 0.907 | 0.67 | 0.703 | 0.933 | 0.715 | 0.261 | 0.681 | 0.928 | 0.272 | 0.908 | 1 | 0.728 | 1 | 0.629 | 0.979 | 0.93 | 0.26 | 0.854 |
| CC1(C)CCC(CN2CCN(c3ccc(C(=O)NS(=O)(=O)c4ccc(NCC5CCOCC5)c([N+](=O)[O-])c4)c(Oc4cnc5[nH]ccc5c4)c3)CC2)=C(c2ccc(Cl)cc2)C1 [Venetoclax] + C1CN(CCC1(C(=O)N[C@@H](CCO)C2=CC=C(C=C2)Cl)N)C3=NC=NC4=C3C=CN4 [Capivasertib] (first compound max 1 µM, 7x7, partner max 3 µM) | 0.391 | 0.653 | 0.242 | 0.234 | 0.163 | 0.366 | 0.37 | 0.359 | 0.176 | 0.111 | 0.377 | 0.289 | 1 | 0.207 | 1 | 0.0704 | 0.553 | 0.387 | 0.396 | 0.648 |
| CCN(CCO)CCCOc1ccc2c(Nc3cc(CC(=O)Nc4cccc(F)c4)[nH]n3)ncnc2c1 [AZD2811] + O=C(c1cc(Cc2n[nH]c(=O)c3ccccc23)ccc1F)N1CCN(C(=O)C2CC2)CC1 [Olaparib] (first compound max 1 µM, 7x7, partner max 10 µM) | 0.351 | 0.282 | 0.231 | 0.203 | 0.24 | 0.249 | 0.149 | 0.12 | 0.282 | 0.239 | 0.333 | 0.443 | 0.924 | 0.18 | 0.848 | 0.377 | 0.82 | 0.255 | 0.158 | 0.576 |
| CN(C)CCCOc1ccc(-c2ccc3ncc4c(c3c2)n(C2CCOCC2)c(=O)n4C)cn1 [AZD0156] + C=CCn1c(=O)c2cnc(Nc3ccc(N4CCN(C)CC4)cc3)nc2n1-c1cccc(C(C)(C)O)n1 [AZD1775] (first compound max 1 µM, partner max 1 µM) | 0.243 | 0.351 | 0.291 | 0.538 | 0.623 | 0.454 | 0.536 | 0.177 | 0.736 | 0.722 | 0.33 | 0.342 | 1 | 0.317 | 0.977 | 0.314 | 0.65 | 0.809 | 0.367 | 0.749 |
